Where two headings read alike, the source gives them in different places.
Key:
[1] = target: CDK7/cyclinH/MAT1 trimeric complex (Homo sapiens, UniProt P50613); assay: In vitro CDK7 assay, potency of irreversible covalent inhibitors (kinact/KI), coupled PK/LDH ADP readout at 340 nm
[2] = tested on: RNA Polymerase II Serine 5 phosphorylation (Rpb1 CTD, downstream substrate of CDK7) in A549 cells; assay: Imaging-based cellular RNA PolII Ser5 phosphorylation assay in A549 cells; format: cell-based, human; conditions: wild-type CDK7, RNA PolII Ser5 phosphorylation, averaged over all measurements; for IC50: Homo sapiens, A549, A549 cells, read-out: CDK7_A549 Wild-type CDK7 (pIC50) (converted); for CDK7_A549 Wild-type CDK7 (pIC50): A549 cells
Outline: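 IC50 derived by fitting % control (DMSO high, 10 μM reference low) against concentration, with Hill slope. Readout: high-content imaging of phospho-Ser5 Rpb1 CTD antibody staining in fixed, permeabilized A549 cells exposed to compound 3 h after 20 h culture in 1% FBS DMEM.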

[3] = tested on: RNA Polymerase II Serine 5 phosphorylation in A549 cells overexpressing CDK7-mutant (C312S); assay: Imaging-based cellular RNA PolII Ser5 phosphorylation assay in A549 cells overexpressing CDK7-mutant (C312S); format: cell-based, human; conditions: RNA PolII Ser5 phosphorylation, averaged over all measurements; for IC50: Homo sapiens, A549, A549 cells overexpressing CDK7-mutant (C312S), read-out: CDK7_A549 mutant hCDK7(pIC50) (converted); for CDK7_A549 mutant hCDK7(pIC50): A549 cells overexpressing CDK7-mutant (C312S)
Outline: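 Readout was automated imaging of anti-phospho-Ser5 Rpb1 CTD immunofluorescence, with IC50 fitted to % control versus concentration. Cells were A549 stably overexpressing non-covalently targetable CDK7 C312S alongside wild-type, exposed to compound 3 h at 37 °C. DMSO and 10 μM reference compound served as controls.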

[4] = read-out: CDK7 (20 nM enz.) (kobs/[I], M^−1*s^−1), 20 nM enzyme
[5] = CDK7 (20 nM enz.) (KI, μM), 20 nM enzyme
[6] = read-out: CDK7 (20 nM enz.) (kinact, s^−1), 20 nM enzyme
[7] = read-out: CDK7 (20 nM enz.) (kinact/KI, M^−1*s^−1), 20 nM enzyme
[8] = read-out: CDK7 (kinact/KI, M^−1*s^−1), potency of irreversible covalent inhibitors, 1 mM ATP, room temperature, averaged values over all measurements

CDK7/cyclinH/MAT1 trimeric complex, sequence (P50613 whole entry): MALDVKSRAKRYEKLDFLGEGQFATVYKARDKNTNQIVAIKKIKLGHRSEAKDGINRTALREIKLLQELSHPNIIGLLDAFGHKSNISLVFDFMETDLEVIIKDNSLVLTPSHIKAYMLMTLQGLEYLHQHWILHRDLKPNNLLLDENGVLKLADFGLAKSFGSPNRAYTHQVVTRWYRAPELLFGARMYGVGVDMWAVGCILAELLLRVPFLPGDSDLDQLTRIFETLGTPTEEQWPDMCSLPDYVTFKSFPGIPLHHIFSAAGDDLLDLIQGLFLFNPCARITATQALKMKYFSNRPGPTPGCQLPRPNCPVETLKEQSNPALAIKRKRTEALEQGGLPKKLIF
CDK7/cyclinH/MAT1 trimeric complex, sequence (P51946 whole entry partner): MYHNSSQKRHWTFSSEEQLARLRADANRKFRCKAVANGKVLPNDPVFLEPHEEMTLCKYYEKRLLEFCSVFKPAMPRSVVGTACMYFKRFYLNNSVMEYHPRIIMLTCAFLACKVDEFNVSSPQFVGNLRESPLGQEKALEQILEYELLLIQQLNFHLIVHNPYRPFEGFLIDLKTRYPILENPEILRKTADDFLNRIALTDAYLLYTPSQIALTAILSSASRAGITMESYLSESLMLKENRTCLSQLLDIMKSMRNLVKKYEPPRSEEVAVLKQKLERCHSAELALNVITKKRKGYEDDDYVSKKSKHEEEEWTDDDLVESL
CDK7/cyclinH/MAT1 trimeric complex, sequence (P51948 whole entry partner): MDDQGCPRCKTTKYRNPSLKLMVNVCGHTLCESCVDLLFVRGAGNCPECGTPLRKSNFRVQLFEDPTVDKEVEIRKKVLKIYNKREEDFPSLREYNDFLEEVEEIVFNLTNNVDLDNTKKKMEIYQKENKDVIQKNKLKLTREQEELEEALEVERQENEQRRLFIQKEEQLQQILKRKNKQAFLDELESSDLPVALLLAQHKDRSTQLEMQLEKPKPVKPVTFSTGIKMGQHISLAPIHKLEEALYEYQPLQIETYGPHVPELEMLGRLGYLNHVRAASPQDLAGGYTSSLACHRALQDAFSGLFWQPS

SMILES | kinact/KI [1, 4] [M⁻¹ s⁻¹] | IC50 [2] [nM] | IC50 [3] [nM] | Ki [1, 5] [µM] | kinact [1, 6] [s⁻¹] | kinact/KI [1, 7] [M⁻¹ s⁻¹] | CDK7 (20 nM enz.) (kinact/KI, M^−1*s^−1) ([1]; 20 nM enzyme) [M⁻¹ s⁻¹] | CDK7_A549 Wild-type CDK7 (pIC50) [2] | CDK7_A549 mutant hCDK7(pIC50) [3] | Ki ([1]; CDK7 (KI(μM)), […], 1 mM ATP, room temperature, averaged values over all measurements) [µM] | kinact ([1]; read-out: CDK7 (kinact, s^−1), kinact = maximal rate of inactivation, 1 mM ATP, room temperature, averaged values over all measurements) [s⁻¹] | kinact/KI [1, 8] [M⁻¹ s⁻¹] | CDK7 (20 nM enz.) (kinact, s^−1) ([1]; 20 nM enzyme) [s⁻¹]
C=CC(=O)N1CC(N2CC(c3cc(C#N)c4c(c3)Nc3nccc(C5CCOCC5)c3[C@H](C)O4)C2)C1 (single isomer, unassigned) [Compound 291] | 26.5 | 1230 | > 10000 | – | – | – | – | – | – | – | – | – | –
C=CC(=O)N1CC(N2CCC(c3ccc4c(c3)Nc3nccc(C5CCOCC5)c3[C@H](C)O4)CC2)C1 (single isomer, unassigned) [Compound 98] | – | 1260 | > 10000 | 0.39 | 5.61e-05 | 144 | – | – | – | – | – | – | –
C=CC(=O)N1CCC(N2CC(c3ccc4c(c3)Nc3nccc(C5CCOCC5)c3CO4)C2)CC1 [Compound 36] | – | – | – | 0.092 | 4.92e-05 | – | 535 | 6.89 | 5.04 | – | – | – | –
C=CC(=O)N1CCC(N2CCC(c3cc4c(c(C)n3)O[C@@H](C)c3c(N5CCOCC5)ccnc3N4)CC2)CC1 (single isomer, unassigned) [Compound 411] | – | 288 | > 10000 | 3.4 | 0.000106 | 31.3 | – | – | – | – | – | – | –
C=CC(=O)N=S1(=O)CCN(c2ccnc3c2COc2ccc(C4CCN(C5CN(C(=O)C=C)C5)CC4)cc2N3)CC1 [Compound 94] | – | > 10000 | > 10000 | 3.37 | 3.79e-05 | 11.2 | – | – | – | – | – | – | –
CC#CC(=O)N1CC[C@H](N2CCC(c3cc4c(c(C)n3)OCc3c(N5CCOCC5)ccnc3N4)CC2)C1 (single isomer, unassigned) [Compound 309] | – | 129 | > 10000 | 0.277 | 5.45e-05 | 197 | – | – | – | – | – | – | –
CC#CC(=O)N1CCC(N2CC(c3cc4c(c(CCC)n3)OCc3c(N5CCOCC5)ccnc3N4)C2)CC1 [Compound 347] | – | 47.9 | 5130 | 0.036 | 2.84e-05 | 791 | – | – | – | – | – | – | –
C=CC(=O)N1CC(N2CC(c3cc4c(c(C)n3)O[C@@H](C)c3c(C5CCOCC5)ccnc3N4)C2)C1 (single isomer, unassigned) [Compound 480] | – | 4570 | > 10000 | – | – | 2.97 | – | – | – | – | – | – | –
CC#CC(=O)N1CC(n2cc(-c3cc(C#N)c4c(c3)Nc3nccc(N5CCOCC5)c3C(C)O4)cn2)C1 (centres unmarked) [Compound 417] | – | 58.9 | 2950 | 0.0223 | 1.51e-05 | 678 | – | – | – | – | – | – | –
C=CC(=O)N1CC[C@@H](N2CC(c3cc4c(c(C(F)(F)F)n3)OCc3c(-c5cnn(C)c5)ccnc3N4)C2)C1 (single isomer, unassigned) [Compound 495] | – | 145 | > 10000 | 0.0763 | 5.75e-05 | 754 | – | – | – | – | – | – | –
C=CC(=O)N1CCC(C#Cc2ccc3c(c2)Nc2nccc(C4CCOCC4)c2CO3)CC1 [Compound 30] | – | ~7590 | > 10000 | – | – | – | – | – | – | 0.316 | 6.56e-05 | 208 | –
C=CC(=O)N1CC[C@H](N2CCC(c3cc4c(c(C)n3)OCc3c(N5CCOCC5)ccnc3N4)CC2)C1 (single isomer, unassigned) [Compound 183] | – | 56.2 | > 10000 | 0.0731 | 5.78e-05 | 791 | – | – | – | – | – | – | –
C=CC(=O)N1CC[C@H](N2CCC(c3ccc4c(c3)Nc3nccc(N5CCOCC5)c3CO4)CC2)C1 (single isomer, unassigned) [Compound 38] | – | 158 | > 10000 | 0.0619 | 6.91e-05 | 1120 | – | – | – | – | – | 744 | –
C=CC(=O)N1CC[C@H](N2CC(c3cc(C)c4c(c3)Nc3nccc(C5CCOCC5)c3CO4)C2)[C@H](F)C1 (mixture of isomers) [Compound 200] | – | 93.3 | ~10000 | 0.0506 | 4.11e-05 | 812 | – | – | – | – | – | – | –
C#CCCN(C)C/C=C/C(=O)N1CC(N2CCC(c3ccc4c(c3)Nc3nccc(C5CCOCC5)c3C(C)O4)CC2)C1 (centres unmarked) [Compound 147] | – | 288 | > 10000 | 0.0278 | 5.84e-05 | 2100 | – | – | – | – | – | – | –
C#CCCN(C)C/C=C/C(=O)N1CC(N2CCC(c3ccc4c(c3)Nc3nccc(N5CCOCC5)c3[C@@H](C)O4)CC2)C1 (single isomer, unassigned) [Compound 191] | – | 4370 | > 10000 | 3.09 | 4.72e-05 | 15.3 | – | – | – | – | – | – | –
C=CC(=O)N1CC[C@@H](N2CCC(c3cc4c(c(C)n3)OCc3c(N5CCOCC5)ccnc3N4)CC2)C1 (single isomer, unassigned) [Compound 363] | – | – | – | 0.0272 | – | – | 1874.15 | 7.52 | <5 | – | – | – | 5.097e-05
C=CC(=O)N1CCC(N2CC(c3cc4c(c(C)n3)OCc3c(-c5cnn(C)c5)ccnc3N4)C2)CC1 [Compound 316] | – | – | – | 0.0898 | – | – | 251.248 | 6.97 | 5.32 | – | – | – | 2.255e-05
C=CC(=O)N1CC(N2CCC(c3ccc4c(c3)Nc3ncc(F)c(N5CCOCC5)c3CO4)CC2)C1 [Compound 151] | – | 34.7 | > 10000 | 0.0205 | 4.67e-05 | 2280 | – | – | – | – | – | – | –
C=CC(=O)N1CCC(N2CC(c3cc(Cl)c4c(c3C)Nc3nccc(C5CCOCC5)c3CO4)C2)CC1 [Compound 86] | – | 1580 | > 10000 | 0.397 | 2.5e-05 | 63.1 | – | – | – | – | – | – | –
C=CC(=O)N1CC(N2CC[C@@H](c3ccc4c(c3)Nc3nccc(N5CCOCC5)c3CO4)C[C@@H]2C)C1 (single isomer, unassigned) [Compound 74] | 1040 | 77.6 | > 10000 | – | – | – | – | – | – | – | – | – | –
C=CC(=O)N1CC[C@H](N2CC(c3cc4c(c(C(F)(F)F)n3)O[C@H](C)c3c(N5CCOCC5)ccnc3N4)C2)C1 (single isomer, unassigned) [Compound 501] | – | – | > 10000 | 2.35 | 3.59e-05 | – | 15.2689 | 5.78 | – | – | – | – | –
C=CC(=O)N1CCC(N2CC(c3cc4c(c(C)n3)O[C@@H](C)c3c(C5CCOCC5)ccnc3N4)C2)CC1 (single isomer, unassigned) [Compound 468] | – | 2040 | > 10000 | 2.21 | 3.64e-05 | 16.5 | – | – | – | – | – | – | –
CC#CC(=O)N1CCC(N2CC(c3cc4c(c(C5CC5)n3)OCc3c(N5CCOCC5)ccnc3N4)C2)CC1 [Compound 340] | – | – | – | 0.0486 | – | – | 507.473 | 7.37 | 5.43 | – | – | – | 2.465e-05
C=CC(=O)N1CCC(N2CCC(c3cc4c(c(C)n3)OCc3c(N5CCOCC5)ccnc3N4)CC2=O)CC1 (centres unmarked) [Compound 476] | – | 550 | > 10000 | 0.236 | 2.18e-05 | 92.5 | – | – | – | – | – | – | –
CC#CC(=O)N1CC(N2CC(c3cc4c(c(C5CC5)n3)OCc3c(N5CCOCC5)ccnc3N4)C2)C1 [Compound 318] | – | 324 | > 10000 | 0.0441 | 6.19e-05 | 1400 | – | – | – | – | – | – | –
C=CC(=O)N1CC[C@H](N2CC(c3cc4c(c(C5CC5)n3)O[C@H](C)c3c(N5CCOCC5)ccnc3N4)C2)C1 (single isomer, unassigned) [Compound 463] | – | 1050 | > 10000 | 0.423 | 3.44e-05 | 81.3 | – | – | – | – | – | – | –
C=CC(=O)N1CC[C@@H](N2CC(c3cc(C#N)c4c(c3)Nc3nccc(N5CCOCC5)c3[C@H](C)O4)C2)C1 (single isomer, unassigned) [Compound 461] | – | 692 | > 10000 | – | – | 16.1 | – | – | – | – | – | – | –
Cc1nc(C2CCN([C@@H]3CCN(C(=O)/C=C/C(=O)O)C3)CC2)cc2c1OCc1c(-c3cnn(C)c3)ccnc1N2 (single isomer, unassigned) [Compound 330] | – | 7240 | > 10000 | 4.58 | 8.82e-05 | 19.2 | – | – | – | – | – | – | –
C=CC(=O)N1CC[C@@H](N2CC(c3cc(C)c4c(c3)Nc3nccc(N5CCOCC5)c3[C@H](C)O4)C2)C1 (single isomer, unassigned) [Compound 227] | – | 724 | > 10000 | 3.01 | 6.83e-05 | 22.7 | – | – | – | – | – | – | –

Reference: US20240254138A1, “TRICYCLIC PYRIMIDINES AS CYCLIN-DEPENDENT KINASE 7 (CDK7) INHIBITORS” (JANSSEN PHARMACEUTICA NV, priority 2021, published 2024)
